This note sets out measurements from ChEMBL document CHEMBL5096239, “Two Binding Sites of SARS-CoV-2 Macrodomain 3 Probed by Oxaprozin and Meclomen” (J Med Chem, 2022).

For orientation: pKd means the Kd on a negative log10 scale, so that one unit is a factor of ten. Low readings indicate a high Kd, high ones a low Kd.

SMILES strings stand for the structures. pKd: −log10 of the molar value.

A short description of assay [1]: Binding affinity to 15N-labelled His6-tagged SARS-CoV-2 Mac3 (551 to 675 residues) V635I mutant expressed in Escherichia coli Rosetta by NMR HSQC spectral analysis. More on the design: species or system Severe acute respiratory syndrome coronavirus 2.
Assay [2] can be described thus: Binding affinity to 15N-labelled MTSL-tagged SARS-CoV-2 Mac3 (551 to 675 residues) T583C mutant expressed in Escherichia coli Rosetta by transferred PRE analysis. More on the design: species or system Severe acute respiratory syndrome coronavirus 2.

With `Cc1ccc(Cl)c(Nc2ccccc2C(=O)O)c1Cl` [MECLOFENAMIC ACID], the pKd in assay [1] is 3.52; in assay [2], 3.15.
